From US7981903B2, “2-[2-{phenylamino}-1H-pyrrolo[2,3-D]pyrimidin-4-yl)amino] benzamide derivatives as IGF-1R inhibitors for the treatment of cancer” (GlaxoSmithKline LLC, priority 2007, dated 2011) come the findings set out here.

In one assay the target is T1, human IGF1R (hIGF1R) (Homo sapiens, UniProt P08069).
T1 construct: containing amino acid residues 957-1367 of human IGF1R; made in house; host or cells: Sf9 cells (baculovirus)
The assay is described as follows: TR-FRET kinase assay of purified hIGF1R. As to conditions: activated hIGF1R 0.5 nM, 10 μM ATP, values given as pIC50 category, read-out: IGF-1R pIC50 (converted). Format: biochemical.

The target in the next assay is T2, human IR (hIR) (Homo sapiens, UniProt P06213).
T2 construct: containing amino acid residues 979-1382 of human IR; made in house; host or cells: Sf9 cells (baculovirus), same process as hIGF1R
In words: TR-FRET kinase assay of purified hIR. In kind it is biochemical. As to conditions: activated hIR 0.5 nM, 10 μM ATP, values given as pIC50 category.

A further assay deals with ALK (Homo sapiens, UniProt Q9UM73). The assay is described as follows: ALK enzyme assay (HTRF). Format: biochemical. As to conditions: 0.25 nM ALK, 15.0 μM ATP, values given as pIC50 category. In a few lines: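 Final compound range 0.00017 to 10 μM (twelve 1:3 dilutions). Kinase reaction with ATP and biotinylated synthetic peptide runs 120 min at 20° C, stopped with EDTA; phosphotyrosine detected by HTRF after 60 min. Inhibition referenced to DMSO (1%) and EDTA (0.1 M) controls, curve-fitted.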

Assay [1] concerns the target T3, NIH-3T3 cells overexpressing human IGF-1R (Homo sapiens, UniProt P08069).
T3 construct: expressed in transfected cells; host or cells: NIH-3T3 (mouse fibroblasts)
The assay is described as follows: IGF-1R cellular autophosphorylation (DELFIA). In kind it is cell-based. The essentials: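 Receptor autophosphorylation measured by DELFIA, capturing IGF-1R or IRβ and detecting with europium anti-pTyr, reported as percent of IGF-1- or insulin-stimulated signal. Compounds (30 uM to 1.5 nM) added 2 h before ligand, then 15 min stimulation (IGF-1 30 ng/ml or insulin 3 ug/ml).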

Assay [2] deals with T4, NIH-3T3 cells overexpressing human IR (Homo sapiens, UniProt P06213).
T4 construct: expressed in transfected cells; host or cells: NIH-3T3 (mouse fibroblasts)
The assay is described as follows: IR cellular autophosphorylation (DELFIA). Format: cell-based. As to conditions: 2 h compound, insulin 3 ug/ml for 15 minutes, IC50 category. Here is the method:
NIH-3T3 cells overexpressing human IGF-1R or IR were plated in 96-well plates (10,000 cells/well) in culture media containing 10% fetal bovine serum and incubated at 37° C. in a 5% CO2 incubator. Twenty four hours post-plating, cells were treated with different concentrations of test compounds ranging from 30 uM to 1.5 nM. Two hours after compound addition, cells were stimulated with either human IGF-1 (30 ng/ml) or insulin (3 ug/ml) for 15 minutes. Cell lysates are analyzed for phosphorylated receptors using dissociation enhanced lanthanide fluor-immuno assay (DELFIA) with anti-IGF-1R (MAB391, R&D Systems, Minneapolis, Minn.) or anti-IRβ (sc-711, Santa Cruz Biotechnology, Santa Cruz, Calif.) capture antibody and europium-labeled anti-pTyr antibody (Eu-N1 PT66, Perkin Elmer, Waltham, Mass.) for detection. The fluorescence signal for cells treated with compounds was expressed as percent relative to 100% stimulation (IGF-1 or insulin stimulated signal).

T2 sequence (P06213 979-1382): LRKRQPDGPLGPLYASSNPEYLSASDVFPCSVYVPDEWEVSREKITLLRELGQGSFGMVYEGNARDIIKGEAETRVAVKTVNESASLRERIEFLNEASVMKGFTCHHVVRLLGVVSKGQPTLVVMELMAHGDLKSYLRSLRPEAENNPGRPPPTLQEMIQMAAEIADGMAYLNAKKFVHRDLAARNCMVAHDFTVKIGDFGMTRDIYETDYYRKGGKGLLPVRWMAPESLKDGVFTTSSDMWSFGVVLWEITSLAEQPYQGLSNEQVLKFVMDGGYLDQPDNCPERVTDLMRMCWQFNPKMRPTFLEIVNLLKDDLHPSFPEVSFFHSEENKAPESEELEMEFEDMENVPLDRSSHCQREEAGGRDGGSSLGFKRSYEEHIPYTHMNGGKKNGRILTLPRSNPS
T3 sequence (P08069 31-1367): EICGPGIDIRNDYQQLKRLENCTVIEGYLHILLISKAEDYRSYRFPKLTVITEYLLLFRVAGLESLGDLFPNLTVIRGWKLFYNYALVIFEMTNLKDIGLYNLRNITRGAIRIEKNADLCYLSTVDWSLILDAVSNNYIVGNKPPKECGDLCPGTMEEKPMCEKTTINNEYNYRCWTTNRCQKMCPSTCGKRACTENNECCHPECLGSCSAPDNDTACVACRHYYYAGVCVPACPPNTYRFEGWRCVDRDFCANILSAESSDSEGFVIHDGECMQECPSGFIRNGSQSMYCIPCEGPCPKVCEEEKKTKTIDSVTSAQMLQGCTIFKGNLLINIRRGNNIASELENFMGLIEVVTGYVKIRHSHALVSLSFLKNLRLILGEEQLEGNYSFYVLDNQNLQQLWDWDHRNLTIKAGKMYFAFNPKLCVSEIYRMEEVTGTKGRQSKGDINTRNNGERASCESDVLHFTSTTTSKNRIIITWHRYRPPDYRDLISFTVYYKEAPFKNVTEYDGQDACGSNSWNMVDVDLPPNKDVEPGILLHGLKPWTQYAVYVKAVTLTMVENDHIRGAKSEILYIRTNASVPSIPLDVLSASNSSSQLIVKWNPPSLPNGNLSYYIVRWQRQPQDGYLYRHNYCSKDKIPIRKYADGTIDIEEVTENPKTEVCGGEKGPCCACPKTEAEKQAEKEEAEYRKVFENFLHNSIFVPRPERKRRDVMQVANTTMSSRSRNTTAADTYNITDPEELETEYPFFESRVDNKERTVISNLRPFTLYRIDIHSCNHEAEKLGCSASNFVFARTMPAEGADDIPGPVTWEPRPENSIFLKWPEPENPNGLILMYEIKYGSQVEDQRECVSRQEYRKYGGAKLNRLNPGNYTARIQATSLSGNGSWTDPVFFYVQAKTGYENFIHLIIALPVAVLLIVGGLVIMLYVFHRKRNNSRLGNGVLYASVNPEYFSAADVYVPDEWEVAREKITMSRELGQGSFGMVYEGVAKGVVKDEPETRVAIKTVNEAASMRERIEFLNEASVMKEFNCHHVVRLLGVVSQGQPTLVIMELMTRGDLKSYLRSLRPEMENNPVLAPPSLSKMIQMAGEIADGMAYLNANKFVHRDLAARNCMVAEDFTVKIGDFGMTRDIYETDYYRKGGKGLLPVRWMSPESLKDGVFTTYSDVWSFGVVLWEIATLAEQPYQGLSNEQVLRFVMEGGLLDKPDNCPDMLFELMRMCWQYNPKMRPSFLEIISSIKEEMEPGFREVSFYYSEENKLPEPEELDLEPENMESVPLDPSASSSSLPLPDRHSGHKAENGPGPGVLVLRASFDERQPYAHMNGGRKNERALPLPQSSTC
Sequence of ALK (Q9UM73 19-1620): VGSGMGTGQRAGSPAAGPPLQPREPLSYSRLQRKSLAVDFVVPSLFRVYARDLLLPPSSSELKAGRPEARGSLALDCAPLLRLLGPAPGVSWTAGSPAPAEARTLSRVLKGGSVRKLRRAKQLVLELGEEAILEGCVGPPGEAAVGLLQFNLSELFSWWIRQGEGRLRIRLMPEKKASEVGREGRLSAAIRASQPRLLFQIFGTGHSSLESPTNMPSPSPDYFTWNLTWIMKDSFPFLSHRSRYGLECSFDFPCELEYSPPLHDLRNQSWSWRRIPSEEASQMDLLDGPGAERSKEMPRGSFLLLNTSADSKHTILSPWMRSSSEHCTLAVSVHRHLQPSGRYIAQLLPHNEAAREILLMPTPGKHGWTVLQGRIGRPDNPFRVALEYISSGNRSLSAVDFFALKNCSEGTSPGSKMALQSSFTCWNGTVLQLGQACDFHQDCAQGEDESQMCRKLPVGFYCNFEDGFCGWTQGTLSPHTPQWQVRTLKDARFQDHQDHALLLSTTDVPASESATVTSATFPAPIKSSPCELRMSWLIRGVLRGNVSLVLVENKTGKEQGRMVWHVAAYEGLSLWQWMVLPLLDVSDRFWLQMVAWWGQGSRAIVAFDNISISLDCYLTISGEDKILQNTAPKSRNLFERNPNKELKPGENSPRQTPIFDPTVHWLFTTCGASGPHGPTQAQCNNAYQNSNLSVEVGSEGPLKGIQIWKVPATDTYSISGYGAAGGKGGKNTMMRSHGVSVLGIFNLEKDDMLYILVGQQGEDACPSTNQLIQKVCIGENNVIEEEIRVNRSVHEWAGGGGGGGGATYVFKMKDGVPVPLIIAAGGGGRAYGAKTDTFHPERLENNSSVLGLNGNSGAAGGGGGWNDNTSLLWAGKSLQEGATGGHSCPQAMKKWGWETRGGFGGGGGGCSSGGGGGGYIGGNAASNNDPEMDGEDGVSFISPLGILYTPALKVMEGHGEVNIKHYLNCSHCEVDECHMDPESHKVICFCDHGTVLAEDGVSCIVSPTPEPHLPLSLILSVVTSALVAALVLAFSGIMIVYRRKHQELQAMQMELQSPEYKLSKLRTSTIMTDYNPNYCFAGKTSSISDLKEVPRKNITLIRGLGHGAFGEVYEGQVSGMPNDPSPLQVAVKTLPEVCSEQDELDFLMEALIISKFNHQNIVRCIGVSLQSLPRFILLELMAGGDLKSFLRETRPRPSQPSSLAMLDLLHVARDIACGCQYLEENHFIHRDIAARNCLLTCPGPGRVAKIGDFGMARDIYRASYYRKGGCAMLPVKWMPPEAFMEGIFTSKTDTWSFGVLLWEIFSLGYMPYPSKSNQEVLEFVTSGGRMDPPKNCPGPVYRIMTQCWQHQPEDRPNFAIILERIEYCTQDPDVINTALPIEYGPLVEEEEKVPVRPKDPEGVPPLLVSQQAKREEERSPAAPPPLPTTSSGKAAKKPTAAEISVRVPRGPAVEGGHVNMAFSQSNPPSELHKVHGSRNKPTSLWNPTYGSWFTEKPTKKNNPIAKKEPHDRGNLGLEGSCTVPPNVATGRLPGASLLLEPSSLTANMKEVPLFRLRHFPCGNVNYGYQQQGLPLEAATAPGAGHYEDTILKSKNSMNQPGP
T1 sequence (P08069 957-1367): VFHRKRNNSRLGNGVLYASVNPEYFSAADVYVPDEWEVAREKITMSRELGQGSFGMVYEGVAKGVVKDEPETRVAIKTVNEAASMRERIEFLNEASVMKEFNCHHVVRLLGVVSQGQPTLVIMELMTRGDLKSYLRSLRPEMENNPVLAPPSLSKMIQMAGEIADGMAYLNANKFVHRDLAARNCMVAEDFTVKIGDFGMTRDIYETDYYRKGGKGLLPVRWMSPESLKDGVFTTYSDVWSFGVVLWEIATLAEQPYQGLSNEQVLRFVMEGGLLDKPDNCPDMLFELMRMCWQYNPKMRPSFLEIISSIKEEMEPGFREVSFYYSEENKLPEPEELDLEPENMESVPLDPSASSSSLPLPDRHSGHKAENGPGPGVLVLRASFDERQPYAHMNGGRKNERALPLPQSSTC
T4 sequence (P06213 28-1382): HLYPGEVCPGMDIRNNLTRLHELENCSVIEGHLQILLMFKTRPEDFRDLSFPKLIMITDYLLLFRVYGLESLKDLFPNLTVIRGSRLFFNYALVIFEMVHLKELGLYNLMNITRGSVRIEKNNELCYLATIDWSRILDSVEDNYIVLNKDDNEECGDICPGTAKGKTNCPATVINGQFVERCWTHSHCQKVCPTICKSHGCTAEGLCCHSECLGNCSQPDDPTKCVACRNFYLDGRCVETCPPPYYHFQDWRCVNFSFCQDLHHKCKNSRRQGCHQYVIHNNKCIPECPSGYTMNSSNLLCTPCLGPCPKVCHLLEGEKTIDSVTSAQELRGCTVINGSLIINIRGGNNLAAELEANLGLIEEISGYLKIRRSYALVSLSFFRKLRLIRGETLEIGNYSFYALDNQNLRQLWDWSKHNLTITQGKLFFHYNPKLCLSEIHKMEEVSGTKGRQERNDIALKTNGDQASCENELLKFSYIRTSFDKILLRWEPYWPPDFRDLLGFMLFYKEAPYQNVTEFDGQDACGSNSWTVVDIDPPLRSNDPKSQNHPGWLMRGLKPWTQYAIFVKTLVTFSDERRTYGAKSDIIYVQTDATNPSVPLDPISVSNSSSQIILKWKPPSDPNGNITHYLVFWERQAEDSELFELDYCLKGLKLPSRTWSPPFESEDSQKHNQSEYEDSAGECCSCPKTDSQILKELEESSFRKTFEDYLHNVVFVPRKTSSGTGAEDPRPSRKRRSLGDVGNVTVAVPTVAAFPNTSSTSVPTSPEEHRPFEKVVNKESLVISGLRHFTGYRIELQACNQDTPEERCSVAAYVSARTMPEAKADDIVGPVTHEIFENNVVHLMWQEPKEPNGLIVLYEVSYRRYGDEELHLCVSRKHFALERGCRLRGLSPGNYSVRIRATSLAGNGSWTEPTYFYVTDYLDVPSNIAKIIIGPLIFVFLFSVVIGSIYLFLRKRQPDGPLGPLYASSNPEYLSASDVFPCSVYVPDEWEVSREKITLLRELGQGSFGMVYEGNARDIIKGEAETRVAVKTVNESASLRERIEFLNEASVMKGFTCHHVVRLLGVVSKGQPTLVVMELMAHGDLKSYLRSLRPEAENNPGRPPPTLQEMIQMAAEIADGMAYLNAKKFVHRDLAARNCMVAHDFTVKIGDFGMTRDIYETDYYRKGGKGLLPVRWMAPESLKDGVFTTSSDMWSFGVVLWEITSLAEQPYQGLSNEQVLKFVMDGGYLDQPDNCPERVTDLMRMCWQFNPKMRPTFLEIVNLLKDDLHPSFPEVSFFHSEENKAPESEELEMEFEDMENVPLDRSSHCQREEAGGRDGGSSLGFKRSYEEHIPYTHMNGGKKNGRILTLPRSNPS

Turning to `COc1cc2c(cc1Nc1nc(Nc3cccc(F)c3C(N)=O)c3cc[nH]c3n1)N(C(=O)CN(C)C)[C@@H](C)C2` [Example 249, 2-[(2-{[(2S)-1-(N,N-dimethylglycyl)-2-methyl-5-(methyloxy)-2,3-dihydro-1H-indol-6-yl]amino}-1H-pyrrolo[2,3-d]pyrimidin-4-yl)amino]-6-fluorobenzamide], the IC50 is 0.251 to 1 nM at human IGF1R (hIGF1R); 0.251 to 1 nM at human IR (hIR); 1.26 to 3.98 nM against ALK; less than 100 nM in assay [1]; less than 100 nM in assay [2].

With `CCCN1CCCC(c2ccc(Nc3nc(Nc4cccc(OC)c4C(N)=O)c4cc[nH]c4n3)c(OC)c2)C1` (centres unmarked) [Example 36, 2-(methyloxy)-6-[(2-{[2-(methyloxy)-4-(1-propyl-3-piperidinyl)phenyl]amino}-1H-pyrrolo[2,3-d]pyrimidin-4-yl)amino]benzamide], the IC50 on human IGF1R (hIGF1R) is 1.26 to 3.98 nM; against human IR (hIR), 1.26 to 3.98 nM; against ALK it was 1.26 to 3.98 nM; in assay [1] it was 100 to 500 nM; in assay [2], 100 to 500 nM.

With `COc1cc(N2CCN(CC(C)C)CC2)ccc1Nc1nc(Nc2cc(F)ccc2C(N)=O)c2cc[nH]c2n1` [Example 80, 4-fluoro-2-{[2-({2-(methyloxy)-4-[4-(2-methylpropyl)-1-piperazinyl]phenyl}amino)-1H-pyrrolo[2,3-d]pyrimidin-4-yl]amino}benzamide], the IC50 was 1.26 to 3.98 nM at human IGF1R (hIGF1R); 0.251 to 1 nM against human IR (hIR); 0.251 to 1 nM on ALK; less than 100 nM in assay [1]; 100 to 500 nM in assay [2].

Take `COc1cc2c(cc1Nc1nc(Nc3cccc(F)c3C(N)=O)c3cc[nH]c3n1)N(C(=O)CN(C)C)[C@H](C)C2` [Example 248, 2-[(2-{[(2R)-1-(N,N-dimethylglycyl)-2-methyl-5-(methyloxy)-2,3-dihydro-1H-indol-6-yl]amino}-1H-pyrrolo[2,3-d]pyrimidin-4-yl)amino]-6-fluorobenzamide]: the IC50 at human IGF1R (hIGF1R) was 5.01 to 200 nM; at human IR (hIR) it was 5.01 to 158 nM; against ALK, 5.01 to 200 nM; in assay [1] it was 100 to 500 nM; in assay [2], 100 to 500 nM.

Take `CCCN1CCC=C(c2ccc(Nc3nc(Nc4cc(Cl)ccc4C(N)=O)c4cc[nH]c4n3)c(OC)c2)C1` [Example 110, 4-chloro-2-[(2-{[2-(methyloxy)-4-(1-propyl-1,2,5,6-tetrahydro-3-pyridinyl)phenyl]amino}-1H-pyrrolo[2,3-d]pyrimidin-4-yl)amino]benzamide]: the IC50 on human IGF1R (hIGF1R) was 1.26 to 3.98 nM; on human IR (hIR), 1.26 to 3.98 nM; against ALK, 0.251 to 1 nM; in assay [1], 100 to 500 nM; in assay [2], more than 500 nM.

As to `COc1cc(N2CCOCC2)ccc1Nc1nc(Nc2ccccc2C(N)=O)c2cc[nH]c2n1` [Example 12, 2-[(2-{[2-(methyloxy)-4-(4-morpholinyl)phenyl]amino}-1H-pyrrolo[2,3-d]pyrimidin-4-yl)amino]benzamide], the IC50 at human IGF1R (hIGF1R) was 1.26 to 3.98 nM; on human IR (hIR) it was 0.251 to 1 nM; at ALK it was 0.251 to 1 nM; in assay [1] it was 100 to 500 nM; in assay [2] it was 100 to 500 nM.

On to `Cc1ccc(NC(=O)CN2CCCC2)cc1Nc1nc(Nc2ccccc2C(N)=O)c2cc[nH]c2n1` [Example 14, 2-{[2-({2-methyl-5-[(1-pyrrolidinylacetyl)amino]phenyl}amino)-1H-pyrrolo[2,3-d]pyrimidin-4-yl]amino}benzamide], for which the IC50 is 1.26 to 3.98 nM at human IGF1R (hIGF1R); 0.251 to 1 nM on human IR (hIR); 1.26 to 3.98 nM on ALK; 100 to 500 nM in assay [1]; 100 to 500 nM in assay [2].

Regarding `COc1cc(C)c(N(C)C(=O)CN(C)C)cc1Nc1nc(Nc2cccc(F)c2C(N)=O)c2cc[nH]c2n1` [Example 255, 2-[(2-{[5-[(N,N-dimethylglycyl)(methyl)amino]-4-methyl-2-(methyloxy)phenyl]amino}-1H-pyrrolo[2,3-d]pyrimidin-4-yl)amino]-6-fluorobenzamide], the IC50 on human IGF1R (hIGF1R) was 5.01 to 200 nM; against human IR (hIR), 5.01 to 158 nM; against ALK, 5.01 to 200 nM; in assay [1], more than 500 nM; in assay [2], more than 500 nM.

As for `CNC(=O)c1c(F)cccc1Nc1nc(Nc2cc3c(cc2OC)C[C@H](C)N3C(=O)CN(C)C)nc2[nH]ccc12` [Example 251, 2-[(2-{[(2S)-1-(N,N-dimethylglycyl)-2-methyl-5-(methyloxy)-2,3-dihydro-1H-indol-6-yl]amino}-1H-pyrrolo[2,3-d]pyrimidin-4-yl)amino]-6-fluoro-N-methylbenzamide], the IC50 at human IGF1R (hIGF1R) was 1.26 to 3.98 nM; against human IR (hIR) it was 1.26 to 3.98 nM; on ALK, 0.251 to 1 nM; in assay [1], less than 100 nM; in assay [2], less than 100 nM.

As for `CCCN1CCC=C(c2ccc(Nc3nc(Nc4cc5ccccc5cc4C(N)=O)c4cc[nH]c4n3)c(OC)c2)C1` [Example 29, 3-[(2-{[2-(methyloxy)-4-(1-propyl-1,2,5,6-tetrahydro-3-pyridinyl)phenyl]amino}-1H-pyrrolo[2,3-d]pyrimidin-4-yl)amino]-2-naphthalenecarboxamide], the IC50 at human IGF1R (hIGF1R) is 1.26 to 3.98 nM; against human IR (hIR), 1.26 to 3.98 nM; at ALK it was 1.26 to 3.98 nM; in assay [1], 100 to 500 nM; in assay [2], 100 to 500 nM.

Regarding `CNC(=O)c1c(F)cc(Cl)cc1Nc1nc(Nc2cc3c(cc2OC)CCN3C(=O)CN(C)C)nc2[nH]ccc12` [Example 120, 4-chloro-2-[(2-{[1-(N,N-dimethylglycyl)-5-(methyloxy)-2,3-dihydro-1H-indol-6-yl]amino}-1H-pyrrolo[2,3-d]pyrimidin-4-yl)amino]-6-fluoro-N-methylbenzamide], the IC50 was 0.251 to 1 nM on human IGF1R (hIGF1R); 0.251 to 1 nM against human IR (hIR); 0.251 to 1 nM on ALK; 100 to 500 nM in assay [1]; 100 to 500 nM in assay [2].

With `CCCN1CCC=C(c2ccc(Nc3nc(Nc4cccc(F)c4C(N)=O)c4cc[nH]c4n3)c(OC)c2)C1` [Example 41, 2-fluoro-6-[(2-{[2-(methyloxy)-4-(1-propyl-1,2,5,6-tetrahydro-3-pyridinyl)phenyl]amino}-1H-pyrrolo[2,3-d]pyrimidin-4-yl)amino]benzamide], the IC50 was 1.26 to 3.98 nM on human IGF1R (hIGF1R); 1.26 to 3.98 nM at human IR (hIR); 0.251 to 1 nM at ALK; 100 to 500 nM in assay [1]; 100 to 500 nM in assay [2].

For `CNC(=O)c1c(F)cccc1Nc1nc(Nc2cc(NC(=O)CN(C)C)c(C)cc2OC)nc2[nH]ccc12` [Example 256, 2-[(2-{[5-[(N,N-dimethylglycyl)amino]-4-methyl-2-(methyloxy)phenyl]amino}-1H-pyrrolo[2,3-d]pyrimidin-4-yl)amino]-6-fluoro-N-methylbenzamide], the IC50 was 0.251 to 1 nM at human IGF1R (hIGF1R); 0.251 to 1 nM against human IR (hIR); 0.251 to 1 nM against ALK; less than 100 nM in assay [1]; 100 to 500 nM in assay [2].

For the compound `COc1cc(C)c(NC(=O)CN(C)C)cc1Nc1nc(Nc2cccc(F)c2C(N)=O)c2cc[nH]c2n1` [Example 257, 2-[(2-{[5-[(N,N-dimethylglycyl)amino]-4-methyl-2-(methyloxy)phenyl]amino}-1H-pyrrolo[2,3-d]pyrimidin-4-yl)amino]-6-fluorobenzamide], the IC50 at human IGF1R (hIGF1R) was 0.251 to 1 nM; on human IR (hIR) it was 0.251 to 1 nM; at ALK, 0.251 to 1 nM; in assay [1], less than 100 nM; in assay [2], less than 100 nM.

As to `CCCN1CCC=C(c2ccc(Nc3nc(Nc4ccc(Cl)cc4C(N)=O)c4cc[nH]c4n3)c(OC)c2)C1` [Example 108, 5-chloro-2-[(2-{[2-(methyloxy)-4-(1-propyl-1,2,5,6-tetrahydro-3-pyridinyl)phenyl]amino}-1H-pyrrolo[2,3-d]pyrimidin-4-yl)amino]benzamide], the IC50 at human IGF1R (hIGF1R) was 0.251 to 1 nM; against human IR (hIR), 0.251 to 1 nM; against ALK, 0.251 to 1 nM; in assay [1], 100 to 500 nM; in assay [2] it was 100 to 500 nM.

As for `CCCN1CCC=C(c2ccc(Nc3nc(Nc4ccccc4C(=O)NC)c4cc[nH]c4n3)c(OC)c2)C1` [Example 23, N-methyl-2-[(2-{[2-(methyloxy)-4-(1-propyl-1,2,5,6-tetrahydro-3-pyridinyl)phenyl]amino}-1H-pyrrolo[2,3-d]pyrimidin-4-yl)amino]benzamide], the IC50 at human IGF1R (hIGF1R) was 1.26 to 3.98 nM; at human IR (hIR) it was 0.251 to 1 nM; against ALK, 0.251 to 1 nM; in assay [1], 100 to 500 nM; in assay [2], 100 to 500 nM.
